# Data taken from patent US11021515B2, “Therapeutically active compounds and their methods of use” (Agios Pharmaceuticals, Inc., priority 2013, dated 2021).
# What was measured:
# [1] = system: U87MG cells; assay: Cellular assay, inhibition of 2-HG production in U87MG cells; format: cell-based; conditions: Homo sapiens, U-87 MG, 48 h
# Procedure: Cells (HT1080 or U87MG) are grown in T125 flasks in DMEM containing 10% FBS, 1× penicillin/streptomycin and 500 ug/mL G418 (present in U87MG cells only). They are harvested by trypsin and seeded into 96 well white bottom plates at a density of 5000 cell/well in 100 ul/well in DMEM with 10% FBS. […] Cells are incubated overnight at 37° C. in 5% CO2. The next day test compounds are made up at 2× the final concentration and 100 ul are added to each cell well. The final concentration of DMSO is 0.2% and the DMSO control wells are plated in row G. The plates are then placed in the incubator for 48 hours. […] The cell plate is placed back in the incubator for another 24 hours. At 72 hours post compound addition, 10 mL/plate of Promega Cell Titer Glo reagent is thawed and mixed. The cell plate is removed from the incubator and allowed to equilibrate to room temperature. Then 100 ul of Promega Cell Titer Glo reagent is added to each well of media. The cell plate is then placed on an orbital shaker for 10 minutes and then allowed to sit at room temperature for 20 minutes. The plate is then read for luminescence with an integration time of 500 ms.
# [2] = target: IDH1 R132C (Homo sapiens (Human), UniProt O75874, R132C); assay: In vitro NADPH depletion assay for IDH1m inhibitors (R132C); format: biochemical; conditions: IDH1 R132C enzyme, read-out: IDH R132C IC50
# Procedure: (§1) A test compound is prepared as 10 mM stock in DMSO and diluted to 50× final concentration in DMSO, for a 50 μl reaction mixture. IDH enzyme activity converting alpha-ketoglutarate to 2-hydroxyglutaric acid is measured using a NADPH depletion assay. In the assay the remaining cofactor is measured at the end of the reaction with the addition of a catalytic excess of diaphorase and resazurin, to generate a fluorescent signal in proportion to the amount of NADPH remaining. […] The reaction is started with the addition of […] Substrate Mix ([…] NADPH, 5 mM alpha-ketoglutarate, in Assay Buffer) and the mixture is incubated for 90 minutes at room temperature.
# The concentration of NADPH and alpha-ketoglutarate in the Substrate Buffer is 20 μM and 1 mM, respectively.
# [3] = target: IDH1 R132H (Homo sapiens (Human), UniProt O75874, R132H); assay: In vitro NADPH depletion assay for IDH1m inhibitors (R132H); format: biochemical; conditions: IDH1 R132H enzyme, read-out: IDH R132H IC50
# Procedure: as §1
# Sequence of IDH1 R132C (O75874 whole entry R132C): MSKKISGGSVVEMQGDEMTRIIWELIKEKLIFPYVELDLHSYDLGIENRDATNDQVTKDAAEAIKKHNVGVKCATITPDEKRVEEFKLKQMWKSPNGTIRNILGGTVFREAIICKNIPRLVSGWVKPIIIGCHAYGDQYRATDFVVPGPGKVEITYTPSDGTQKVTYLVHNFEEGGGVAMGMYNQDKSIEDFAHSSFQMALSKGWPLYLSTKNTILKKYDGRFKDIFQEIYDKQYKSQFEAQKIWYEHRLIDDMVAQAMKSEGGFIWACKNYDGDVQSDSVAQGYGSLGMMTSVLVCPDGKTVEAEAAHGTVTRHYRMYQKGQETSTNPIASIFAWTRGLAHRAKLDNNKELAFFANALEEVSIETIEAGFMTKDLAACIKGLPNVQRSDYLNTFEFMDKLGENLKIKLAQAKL
# Sequence of IDH1 R132H (O75874 whole entry R132H): as the sequence (O75874 whole entry R132C) above, with C132H counted along it
SMILES,IC50 [1] [nM],IC50 [2] [nM],IC50 [3] [nM]
O=C(NC1CC(F)(F)C1)[C@H](c1ccccc1Cl)N(C(=O)[C@@H]1CCC(=O)N1c1ccccc1)c1cccc(F)c1 [Compound 23],100 to 500,–,–
O=C(NC1CC(F)(F)C1)[C@H](c1ccccc1Cl)N(C(=O)[C@@H]1CCC(=O)N1c1cccc(F)n1)c1cccc(F)c1 [Compound 11],–,100 to 500,–
O=C(NC1CC(F)(F)C1)[C@H](c1ccccc1Cl)N(C(=O)[C@@H]1CCC(=O)N1c1nccc2ccccc12)c1cccc(F)c1 [Compound 16],–,100 to 500,100 to 500
"CS(=O)(=O)c1cc(F)cc(N(C(=O)[C@@H]2CCC(=O)N2c2nccc(C#N)n2)[C@H](C(=O)NC2CC(F)(F)C2)c2ccccc2Cl)c1 [Compound 109, (S)—N—((S)-1-(2-Chlorophenyl)-2-((3,3-difluorocyclobutyl)amino)-2-oxoethyl)-1-(4-cyanopyrimidin-2-yl)-N-(3-fluoro-5-(methylsulfonyl)phenyl)-5-oxopyrrolidine-2-carboxamide]",100 to 500,–,–
"CCOC(=O)CN1C[C@@H](C(=O)N(c2cccc(F)c2)[C@H](C(=O)NC2CC(F)(F)C2)c2ccccc2Cl)N(c2cc(C#N)ccn2)C1=O [Compound 94, Ethyl 2-((4S)-4-((1-(2-chlorophenyl)-2-((3,3-difluorocyclobutyl)amino)-2-oxoethyl)(3-fluorophenyl)carbamoyl)-3-(4-cyanopyridin-2-yl)-2-oxoimidazolidin-1-yl)acetate]",< 100,–,–
O=C(NC1CC(F)(F)C1)[C@H](c1ccccc1Cl)N(C(=O)[C@@H]1CCC(=O)N1c1ccccn1)c1cccc(F)c1 [Compound 5],100 to 500,–,–

# More lines, now with the values ahead:
IC50 [1] [nM],IC50 [2] [nM],IC50 [3] [nM],SMILES
< 100,–,–,"N#Cc1ccnc(N2C(=O)CC[C@H]2C(=O)N(c2cccc(C3(O)CC3)c2)[C@H](C(=O)NC2CC(F)(F)C2)c2ccccc2Cl)c1 [Compound 140, (S)—N—((S)-1-(2-Xhlorophenyl)-2-(3,3-difluorocyclobutylamino)-2-oxoethyl)-1-(4-cyanopyridin-2-yl)-N-(3-(1-hydroxycyclopropyl)phenyl)-5-oxopyrrolidine-2-carboxamide]"
< 100,< 100,< 100,"CS(=O)(=O)c1cc(F)cc(N(C(=O)[C@@H]2CCC(=O)N2c2cc(C#N)ccn2)C(C(=O)NC2CC(F)(F)C2)c2ccccc2Cl)c1 (mixture of isomers) [Compound 110, (2S)—N-(1-(2-Chlorophenyl)-2-((3,3-difluorocyclobutyl)amino)-2-oxoethyl)-1-(4-cyanopyridin-2-yl)-N-(3-fluoro-5-(methylsulfonyl)phenyl)-5-oxopyrrolidine-2-carboxamide]"
< 100,–,–,"N#Cc1ccnc(N2C(=O)OC[C@H]2C(=O)N(c2cccc(F)c2)[C@H](C(=O)NC2CCC(F)(F)CC2)c2ccccc2Cl)c1 [Compound 78, (S)—N—((S)-1-(2-Chlorophenyl)-2-((4,4-difluorocyclohexyl)amino)-2-oxoethyl)-3-(4-cyano-pyridin-2-yl)-N-(3-fluorophenyl)-2-oxooxazolidine-4-carboxamide]"
< 100,–,–,"CS(=O)(=O)c1cc(F)cc(N(C(=O)[C@@H]2CCC(=O)N2c2cc(C#N)ccn2)C(C(=O)NC2CCC(F)(F)CC2)c2ccccc2Cl)c1 (mixture of isomers) [Compound 105, (2S)—N-(1-(2-Chlorophenyl)-2-((4,4-difluorocyclohexyl)amino)-2-oxoethyl)-1-(4-cyanopyridin-2-yl)-N-(3-fluoro-5-(methylsulfonyl)phenyl)-5-oxopyrrolidine-2-carboxamide]"
< 100,–,–,O=C(NC1CC(F)(F)C1)[C@H](c1ccccc1Cl)N(C(=O)[C@@H]1CCC(=O)N1c1cnccn1)c1cccc(F)c1 [Compound 18]
